Molecules are shown by their SMILES. Some results are limits rather than exact numbers.

Consider 47 compounds from ChEMBL document CHEMBL1144903, “Generation of predictive pharmacophore models for CCR5 antagonists: study with piperidine- and piperazine-based compounds as a new class of HIV-1 entry inhibitors” (J Med Chem, 2003).

Sequence of C-C chemokine receptor type 5 (P51681 whole entry): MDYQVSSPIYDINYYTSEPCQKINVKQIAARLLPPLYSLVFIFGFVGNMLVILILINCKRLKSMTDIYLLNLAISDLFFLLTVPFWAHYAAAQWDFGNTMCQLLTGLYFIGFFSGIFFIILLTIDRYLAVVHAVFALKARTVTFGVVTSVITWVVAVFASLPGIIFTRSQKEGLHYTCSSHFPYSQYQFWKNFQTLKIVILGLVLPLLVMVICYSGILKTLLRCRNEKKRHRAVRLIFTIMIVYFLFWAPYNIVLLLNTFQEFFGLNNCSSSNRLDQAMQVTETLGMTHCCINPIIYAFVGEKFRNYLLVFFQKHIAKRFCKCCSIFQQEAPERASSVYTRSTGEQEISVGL

This test concerns the target C-C chemokine receptor type 5 (Homo sapiens, UniProt P51681). Briefly: Inhibition of RANTES binding to the human C-C chemokine receptor type 5 (CCR5).
As a reminder, the Ki is a measure of affinity in units of concentration, obtained from inhibition or displacement. In turn, `Cc1cccc(C)c1C(=O)N1CCC(C)(N2CCC(Cc3ccc(-c4ccccc4)cc3)CC2)CC1` returned a Ki of 0.36 µM.

`Cc1cccc(C)c1C(=O)N1CCC(C)(N2CCC(Cc3ccc(Cl)cc3)CC2)CC1` returned a Ki of 0.068 µM.

Take `COc1ccc(CC2CCN(C3(C)CCN(C(=O)c4c(C)cccc4C)CC3)CC2)cc1`: the affinity, expressed as Ki, was 0.155 µM.

The compound `Cc1cccc(C)c1C(=O)N1CCC(C)(N2CCC(Cc3ccc(I)cc3)CC2)CC1` yielded a Ki of 0.033 µM.

Compound `Cc1cccc(C)c1C(=O)N1CCC(C)(N2CCC(Cc3ccc(S(C)(=O)=O)cc3)CC2)CC1` registered a Ki of 0.033 µM.

`Cc1cccc(C)c1C(=O)N1CCC(C)(N2CCC(Cc3ccc(C(F)(F)F)cc3)CC2)CC1` registered a Ki of 0.025 µM.

On to `C=C(c1ccc(Br)cc1)C1CCN(C2(C)CCN(C(=O)c3c(C)cccc3C)CC2)CC1`, for which affinity was put at a Ki of 0.008 µM.

Compound `Cc1ccc(CC2CCN(C3(C)CCN(C(=O)c4c(C)cccc4C)CC3)CC2)cc1` came in with a Ki of 0.11 µM.

`Cc1cccc(C)c1C(=O)N1CCC(C)(N2CCC(C(C)c3ccc(Br)cc3)CC2)CC1` (configuration not stated) gave a Ki of 0.062 µM.

`CO/N=C(/c1ccc(Br)cc1)C1CCN(C2(C)CCN(C(=O)c3c(C)cccc3C)CC2)CC1` came in with a Ki of 0.002 µM.

For `C[C@H]1CN(C2(C)CCN(C(=O)c3c(N)cccc3Cl)CC2)CCN1[C@@H](C)c1ccc(I)cc1`, affinity was put at a Ki of 0.012 µM.

`Cc1cccc(C)c1C(=O)N1CCC(C)(N2CCN([C@@H](C)c3ccc(C(F)(F)F)cc3)[C@@H](C)C2)CC1` came in with a Ki of 0.001 µM.

`CCO/N=C(/c1ccc(Br)cc1)C1CCN(C2(C)CCN(C(=O)c3c(C)c[n+]([O-])cc3C)CC2)CC1`: the Ki was determined as 0.0088 µM.

Regarding `CCO/N=C(/c1ccc(Br)cc1)C1CCN(C2(C)CCN(C(=O)c3c(C)cncc3C)CC2)CC1`, the Ki came to 0.0023 µM.

Compound `CCO/N=C(/c1ccc(Br)cc1)C1CCN(C2(C)CCN(C(=O)c3cccnc3C)CC2)CC1` registered a Ki of 0.026 µM.

Compound `CO/N=C(/c1ccc(Br)cc1)C1CCN(C2(C)CCN(C(=O)c3c(C)cc[n+]([O-])c3C)CC2)CC1` showed a Ki of 0.019 µM.

As to `CCO/N=C(/c1ccc(S(C)(=O)=O)cc1)C1CCN(C2(C)CCN(C(=O)c3c(C)cc[n+]([O-])c3C)CC2)CC1`, the Ki turned out to be 0.02 µM.

In turn, `CCO/N=C(/c1ccc(Br)cc1)C1CCN(C2(C)CCN(C(=O)c3c(C)ccnc3C)CC2)CC1` gave a Ki of 0.0011 µM.

For `CCO/N=C(/c1ccc(Br)cc1)C1CCN(C2(C)CCN(C(=O)c3c(Cl)c[n+]([O-])cc3Cl)CC2)CC1`, the Ki was determined as 0.0012 µM.

In turn, `CO/N=C(/c1ccc(S(C)(=O)=O)cc1)C1CCN(C2(C)CCN(C(=O)c3c(C)cc[n+]([O-])c3C)CC2)CC1` came in with a Ki of 0.03 µM.

`CCO/N=C(/c1ccc(Br)cc1)C1CCN(C2(C)CCN(C(=O)c3c(C)cc(C)nc3O)CC2)CC1`: the Ki stood at 0.043 µM.

`Cc1cccc(C)c1C(=O)N1CCC(C)(N2CCC(/C(=N\OC(C)C)c3ccc(Br)cc3)CC2)CC1` gave a Ki of 0.004 µM.

In turn, `CO/N=C(/c1ccc(Br)cc1)C1CCN(C2(C)CCN(C(=O)c3c(C)cccc3N)CC2)CC1` returned a Ki of 0.0045 µM.

Turning to `CCO/N=C(/c1ccc(Br)cc1)C1CCN(C2(C)CCN(C(=O)c3c(C)cc[nH]c3=O)CC2)CC1`, the Ki is greater than 0.03 µM.

`CO/N=C(/c1ccc(Br)cc1)C1CCN(C2(C)CCN(C(=O)c3c(C)ccnc3C)CC2)CC1` registered a Ki of 0.0011 µM.

On to `CCO/N=C(/c1ccc(Br)cc1)C1CCN(C2(C)CCN(C(=O)c3c(C)ccc[n+]3[O-])CC2)CC1`, for which the Ki was 0.016 µM.

The compound `Cc1cccc(C)c1C(=O)N1CCC(C)(N2CCC(/C(=N\Oc3ccccc3)c3ccc(Br)cc3)CC2)CC1` returned a Ki greater than 0.03 µM.

`C[C@H]1CN(C2CCN(C(=O)c3c(F)cccc3I)CC2)CCN1[C@@H](C)c1ccc(I)cc1`: the affinity corresponds to a Ki of 1.3 µM.

`CCO/N=C(/c1ccc(Br)cc1)C1CCN(C2(C)CCN(C(=O)c3ccc[n+]([O-])c3C)CC2)CC1` registered a Ki greater than 0.03 µM.

`CCO/N=C(/c1ccc(Br)cc1)C1CCN(C2(C)CCN(C(=O)c3c(C)cc(-c4ccncc4)cc3C)CC2)CC1` displayed a Ki of 0.0001 µM.

Take `CCO/N=C(/c1ccc(Br)cc1)C1CCN(C2(C)CCN(C(=O)c3cccnc3)CC2)CC1`: the Ki is greater than 0.03 µM.

Consider `CCO/N=C(/c1ccc(Br)cc1)C1CCN(C2(C)CCN(C(=O)c3ccc[n+]([O-])c3)CC2)CC1`, for which the Ki was greater than 0.03 µM.

`CO/N=C(/c1ccc(Br)cc1)C1CCN(C2(C)CCN(C(=O)c3c(C)ncnc3C)CC2)CC1` yielded a Ki of 0.0047 µM.

The compound `CCO/N=C(/c1ccc(F)cc1)C1CCN(C2(C)CCN(C(=O)c3c(C)cc[n+]([O-])c3C)CC2)CC1` gave a Ki of 0.03 µM.

In the case of `CCOC(=O)CO/N=C(/c1ccc(Br)cc1)C1CCN(C2(C)CCN(C(=O)c3c(C)cccc3C)CC2)CC1`, the affinity, expressed as Ki, was 0.033 µM.

The compound `CCO/N=C(/c1ccc(Br)cc1)C1CCN(C2(C)CCN(C(=O)c3c(C)ncnc3C)CC2)CC1` registered a Ki of 0.0022 µM.

For `CCO/N=C(/c1ccc(C(F)(F)F)cc1)C1CCN(C2(C)CCN(C(=O)c3c(C)cc[n+]([O-])c3C)CC2)CC1`, the Ki was 0.0038 µM.

`Cc1cccc(C)c1C(=O)N1CCC(C)(N2CCC(Cc3ccc(OC(F)(F)F)cc3)CC2)CC1` registered a Ki of 0.055 µM.

In turn, `Cc1cccc(O)c1C(=O)N1CCC(C)(N2CCN([C@@H](C)c3ccc(I)cc3)[C@@H](C)C2)CC1` registered a Ki of 0.007 µM.

Regarding `CCO/N=C(/c1ccc(Br)cc1)C1CCN(C2(C)CCN(C(=O)c3c(C)cccc3C)CC2)CC1`, the Ki amounted to 0.002 µM.

`CCO/N=C(/c1ccc(Br)cc1)C1CCN(C2(C)CCN(C(=O)c3c(C)cc(O)nc3C)CC2)CC1`: affinity was put at a Ki of 0.007 µM.

The compound `CO/N=C(/c1ccc(Br)cc1)C1CCN(C2(C)CCN(C(=O)c3c(N)cccc3Cl)CC2)CC1` returned a Ki of 0.0034 µM.

Regarding `Cc1cccc(C)c1C(=O)N1CCC(C)(N2CCC(/C(=N\OC(C)(C)C)c3ccc(Br)cc3)CC2)CC1`, the Ki worked out at 0.009 µM.

On to `CCO/N=C(/c1ccc(Br)cc1)C1CCN(C2(C)CCN(C(=O)c3c(Br)c[n+]([O-])cc3Br)CC2)CC1`, for which the Ki is 0.0007 µM.

`CNC(=O)CO/N=C(/c1ccc(Br)cc1)C1CCN(C2(C)CCN(C(=O)c3c(C)cccc3C)CC2)CC1` displayed a Ki of 0.033 µM.

Consider `CCO/N=C(/c1ccc(Cl)cc1)C1CCN(C2(C)CCN(C(=O)c3c(C)cc[n+]([O-])c3C)CC2)CC1`, for which the Ki was found to be 0.0056 µM.

Compound `CCO/N=C(/c1ccc(Br)cc1)C1CCN(C2(C)CCN(C(=O)c3c(F)cccc3C(F)(F)F)CC2)CC1` gave a Ki of 0.003 µM.
